Measured values: patent publication US20250002954A1, “Novel Compound, Use Thereof, and Method for Producing Same, and Compound-Containing Composition, Method for Producing 4-Trehalosamine, and Microorganism” (Microbial Chemistry Research Foundation, priority 2021, published 2025)

Legend:
[1] = target: T1, yeast alcohol dehydrogenase (ADH) (Saccharomyces cerevisiae, UniProt P00330); assay: Evaluation of ADH-protective activity under freeze-dried condition; format: biochemical; details: for ADH activity after freeze-drying: freeze-dried with 1% or 3% sugar, GOL 3%
T1 construct: purchased Oriental Yeast Co., Ltd
T1 sequence (P00330 1-348): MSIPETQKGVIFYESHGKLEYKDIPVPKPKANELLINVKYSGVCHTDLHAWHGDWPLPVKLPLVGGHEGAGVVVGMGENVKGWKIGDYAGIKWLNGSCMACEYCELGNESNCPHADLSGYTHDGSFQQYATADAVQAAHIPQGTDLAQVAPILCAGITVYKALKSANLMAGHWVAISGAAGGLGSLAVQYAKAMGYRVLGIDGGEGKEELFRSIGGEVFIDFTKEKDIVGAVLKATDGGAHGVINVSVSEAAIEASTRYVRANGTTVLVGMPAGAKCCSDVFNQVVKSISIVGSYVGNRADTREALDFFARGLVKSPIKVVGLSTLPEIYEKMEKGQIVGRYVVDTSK
Procedure: Test samples 1 to 12 containing yeast alcohol dehydrogenase (ADH) were prepared as follows and protein-protective activity of various kinds of added sugar under freeze-dried condition was evaluated.
Yeast alcohol dehydrogenase (manufactured by Oriental Yeast Co., Ltd.) was dissolved in water at 1,000 units/mL and then diluted to 6 units/mL with TBS (manufactured by Takara Bio Inc.). 50 μL of TBS containing 2% trehalose (TRH) was added to and mixed with 50 μL of this enzyme solution and the mixture was frozen at −80° C. for 10 minutes. It was then freeze-dried for 20 hours with a freeze dryer (FLEXI-DRY, manufactured by FTS systems INC., Warminster) connected to a vacuum pump (P65D, manufactured by PHIL Sato Vac INC.), preparing freeze-dried product of enzyme with 1% TRH.
Freeze-dried product of enzyme with 3% TRH was prepared in a similar manner to the preparation method of test sample 4 except that the final concentration of trehalose was changed to 3% in the preparation method of test sample 4.
Freeze-dried product of enzyme with 1% 4TA was prepared in a similar manner to the preparation method of test sample 4 except that trehalose was changed to 4-trehalosamine (4TA) in the preparation method of test sample 4.
Freeze-dried product of enzyme with 3% 4TA was prepared in a similar manner to the preparation method of test sample 5 except that trehalose was changed to 4-trehalosamine (4TA) in the preparation method of test sample 5.
Freeze-dried product of enzyme with 1% MLT was prepared in a similar manner to the preparation method of test sample 4 except that trehalose was changed to maltose (MLT) in the preparation method of test sample 4.
Freeze-dried product of enzyme with 3% MLT was prepared in a similar manner to the preparation method of test sample 5 except that trehalose was changed to maltose (MLT) in the preparation method of test sample 5.
Freeze-dried product of enzyme with 1% SCR was prepared in a similar manner to the preparation method of test sample 4 except that trehalose was changed to sucrose (SCR) in the preparation method of test sample 4.
Freeze-dried product of enzyme with 3% SCR was prepared in a similar manner to the preparation method of test sample 5 except that trehalose was changed to sucrose (SCR) in the preparation method of test sample 5.
Freeze-dried product of enzyme with 3% GOL was prepared in a similar manner to the preparation method of test sample 5 except that trehalose was changed to glycerol (GOL) in the preparation method of test sample 5.
The enzyme solution from test sample 1, the freeze-thaw product of enzyme from test sample 2, and the freeze-dried products from test samples 3 to 12 were each diluted to 0.012 units/mL with TBS. 0.5 mM β-NAD^+ (manufactured by Oriental Yeast Co., Ltd.) and 0.62 M ethanol were added, and enzyme reaction was left to take place at room temperature for 1 hour. After the reaction, absorbance at 340 nm was measured with a microplate reader (Cytation5, manufactured by Bio Tek Instruments) (n=3, mean±S.D.). The value of this absorbance at 340 nm was divided by the value of absorbance at 340 nm for the enzyme solution of test sample 1 (control) to determine ADH activity.

[2] = tested on: Escherichia coli K-12; assay: Evaluation of Escherichia coli protective activity in freeze-dried condition; format: cell-based; details: for Numbers of live bacterial cells (relative numbers): Escherichia coli freeze-dried with 6% aqueous solution (final concentration 3%), test sample 3 (FD) = 1
Procedure: Using test samples 1 to 8 containing Escherichia coli prepared in the following manner, microorganism-protective activity with various kinds of sugar in a freeze-dried condition was evaluated.
Frozen stock of Escherichia coli (Escherichia coli K-12, owned by the Microbial Chemistry Research Foundation) was inoculated in 10 mL of Luria-Bertani (LB) culture medium (manufactured by Difco) and cultured at 37° C. for 24 hours while shaking it at 220 rpm. After culture, it was centrifuged at 3,000×g for 5 minutes, washed once with 10 mL of water, and then suspended in 10 mL of water, thus obtaining Escherichia coli suspension. 50 μL of water was added to and mixed with 50 μL of this Escherichia coli suspension and the mixture was left to stand at 4° C. for 12 hours, preparing control (NF).
After Escherichia coli suspension was prepared in a similar manner to test sample 1, 50 μL of 6% aqueous solution of trehalose was added to and mixed with 50 μL of the Escherichia coli suspension, and the mixture was frozen at −80° C. for 1 hour. It was then freeze-dried for 12 hours with a freeze dryer (FLEXI-DRY, manufactured by FTS systems INC., Warminster) connected to a vacuum pump (P65D, manufactured by PHIL Sato Vac INC.), preparing freeze-dried product (TRH) of Escherichia coli with TRH.
Freeze-dried product (4TA) of Escherichia coli with 4TA was obtained in a similar manner to the preparation method of test sample 4 except that trehalose was changed to 4-trehalosamine (4TA) in the preparation method of test sample 4.
Freeze-dried product (MLT) of Escherichia coli with MLT was obtained in a similar manner to the preparation method of test sample 4 except that trehalose was changed to maltose (MLT) in the preparation method of test sample 4.
Freeze-dried product (SCR) of Escherichia coli with SCR was obtained in a similar manner to the preparation method of test sample 4 except that trehalose was changed to sucrose (SCR) in the preparation method of test sample 4.
Freeze-dried product (GOL) of Escherichia coli with GOL was obtained in a similar manner to the preparation method of test sample 4 except that trehalose was changed to glycerol (GOL) in the preparation method of test sample 4.
For test samples 1 and 2, serial suspensions were made by diluting them to 1/10 with water. 100 μL of water was added to each of the freeze-dried products of test samples 3 to 8 and diluted to 1/10 with water to make their serial suspensions. 80 μL of water was added to 10 μL of each diluted solution.
In a 6-well microplate, 2% Agar-LB was prepared at 3 mL/well, and 90 μL of each diluted solution was inoculated on the 2% Agar-LB and cultured at 37° C. for 24 hours.
Wells in which the number of colonies was measurable were selected and the numbers (relative numbers) of live bacterial cells per well on test samples 1, 2, and 4 to 8 when the number of live bacterial cells per well on test sample 3 (FD) was “1” were calculated in consideration of the dilution concentrations of those test samples.

Compound	ADH activity after freeze-drying [1]	Numbers of live bacterial cells (relative numbers) [2]	ADH protection effect compared to other sugars ([1]; freeze-dried)	protective effect on microorganisms, comparison ([2]; Escherichia coli, freeze-dried)
OC[C@H]1O[C@H](O[C@H]2[C@H](O)[C@@H](O)C(O)O[C@@H]2CO)[C@H](O)[C@@H](O)[C@@H]1O (mixture of isomers) [maltose]	good activity was maintained	10	–	–
OC[C@H]1O[C@H](O[C@H]2O[C@H](CO)[C@@H](O)[C@H](O)[C@H]2O)[C@H](O)[C@@H](O)[C@@H]1O [trehalose, reference compound]	good activity was maintained	10	–	–
N[C@H]1[C@H](O)[C@@H](O)[C@@H](O[C@H]2O[C@H](CO)[C@@H](O)[C@H](O)[C@H]2O)O[C@@H]1CO [4-trehalosamine]	good activity was maintained	100	high compared to the other sugars	stronger than when the other sugars were added

More lines, main results first:

ADH activity after freeze-drying [1]	Compound	Numbers of live bacterial cells (relative numbers) [2]	ADH protection effect compared to other sugars ([1]; freeze-dried)	protective effect on microorganisms, comparison ([2]; Escherichia coli, freeze-dried)
enzyme activity significantly dropped	OCC(O)CO [GOL, glycerol]	0	–	–
good activity was maintained	OC[C@H]1O[C@@](CO)(O[C@H]2O[C@H](CO)[C@@H](O)[C@H](O)[C@H]2O)[C@@H](O)[C@@H]1O [sucrose]	100	–	–
